The values that follow come from US9012487B2, “Bicyclo-pyrazoles active as kinase inhibitors” (Nerviano Medical Sciences S.r.l., priority 2006, dated 2015).

Molecules are shown by their SMILES. Structures can show the parent of a compound that is named as a salt.

In general, IC50 refers to the concentration that gives 50% inhibition.

One experiment deals with T1, IGF1R (Homo sapiens, UniProt P08069).
T1 construct: endogenous in cells; host or cells: MCF-7 (ATCC #HTB-22)
The experiment in a line: Western blot analysis of receptor phosphorylation following stimulation with IGF-1 in MCF-7 human breast cancer cells. The settings on record: MCF-7 starved cells stimulated with 10 nM IGF1; increasing concentrations of compound; Western blot band of pIGF1R (FIG. 2). The format is cell-based. As to the method:
Treatment of starved MCF-7 cells with 10 nM IGF1 induced receptor auto-phosphorylation as shown by the appearance of a more intense band of phosphorylated IGF1R (pIGF1R).
Western Blot Analysis of Receptor Phosphorylation Following Stimulation with IGF-1 in MCF-7 Human Breast Cancer Cells
MCF-7 cells (ATCC #HTB-22) were seeded in 12-well tissue culture plates at 2×10^5 cells/well in E-MEM medium (MEM+Earle's BSS+2 mM glutamine+0.1 mM non-essential amino acids)+10% FCS, and incubated overnight at 37° C., 5% CO2, 100% relative humidity. Cells were then starved by replacing E-MEM+10% FCS with E-MEM+0.1% BSA, and incubating overnight. After this incubation, wells were treated with desired concentrations of compound for 1 hour at 37° C., and were then stimulated with 10 nM recombinant human IGF-1 (Invitrogen, Carlsbad, Calif., USA) for 10 minutes at 37° C. Cells were then washed with PBS and lysed in 100 microL/well cell lysis buffer (M-PER Mammalian Protein Extraction Reagent [Product #78501, Pierce, Rockford, Ill., USA]+10 mM EDTA+Protease inhibitor cocktail [Sigma-Aldrich product #P8340]+phosphatase inhibitor cocktail [Sigma-Aldrich products #P2850+#P5726]). […]

A further experiment has as its target T2, IGF-1R (Homo sapiens, UniProt P08069, M1123C/Y1125N).
T2 construct: made in house; host or cells: baculovirus; virus made in Sf21, protein expressed in H5 insect cells
The experiment in a line: Inhibition assay for IGF-1R kinase activity (Scintillation Proximity Assay). The settings on record: read-out: IGF1R IC50 (μM) Biochemical assay. As to the method:
Human cDNA was used as template for amplification by polymerase chain reaction (PCR) of the whole cytoplasmic portion of IGF-1R (amino acid residues 960-1367), which includes the entire kinase domain. PCR was conducted using the forward primer sequence 5′-[…]-3′ (SEQ ID NO: 1) and the reverse primer sequence 5′-[…]-3′ (SEQ ID NO: 2). In order to facilitate subsequent cloning steps, both primers comprise a BamHI restriction endonuclease site sequence. The PCR product was cloned into a transfer vector for the baculovirus expression system, pVL1393 (Pharmingen), modified to include the sequence encoding the Glutathione S-transferase (GST) fusion protein and a PreScission cleavage site upstream of the inserted gene of interest. The GST-IGF-1R coding region corresponds to nucleic acid residues of 4168-6084. The final protein encoded by the open reading frame corresponds to a fusion protein of 639 amino acids, shown in SEQ ID NO: 3 (FIG. 1). […]
The inhibitory activity of putative kinase inhibitors and the potency of selected compounds was determined using a Scintillation Proximity Assay (SPA) in 96 well microtiter plate format. […] When a radioactively labeled phosphate moiety is transferred by the kinase to the biotinylated peptide, this stimulates light emission by the bead, which is measured in a scintillation counter. […]

For experiment [1], the system named is IGF-1 induced S6 ribosomal protein phosphorylation. Nature of the experiment: Growth factor induced S6 ribosomal protein phosphorylation in primary human fibroblasts (NHDF). The settings on record: normal human dermal fibroblasts (NHDF), stimulated with 10 nM IGF-1; read-out: Inhibition of IGF1R-induced S6 phosphorytation IC50. Type of experiment: cell-based. As to the method:
Growth Factor Induced S6 Ribosomal Protein Phosphorylation in Primary Human Fibroblasts. Phosphorylation of S6 ribosomal protein in response to growth factor stimulation of normal human dermal fibroblasts (NHDF) was used to assess compound potency in inhibiting IGF-1 induced signal transduction in cells, and selectivity towards EGF and PDGF stimulus. NHDF cells obtained from PromoCell (Heidelberg, Germany), were maintained at 37° C. in a humidified atmosphere with 5% CO2 in complete Fibroblast Growth Medium (PromoCell). For assay, NHDF were seeded in 384-well tissue culture plates (clear- and flat-bottomed black plates; Matrix Technologies Inc., Hudson, N.H., USA) at a density of 5000 cells/well in serum-free medium containing 0.1% bovine serum albumin (BSA) and incubated for 5 days. […] Fluorescence images in the DAPI and Cy5™ channels were automatically acquired, stored and analysed using a Cellomics ArrayScan™ IV instrument (Cellomics, Pittsburgh, USA); the Cellomics Cytotoxicity Algorithm was used to quantify cytoplasmic fluorescence associated with phospho-S6 (Cy5™ signal parameter: “Mean Lyso Mass-pH”) for each cell in 10 fields/well, and eventually expressed as a mean population value. […]

T1 sequence (P08069 31-1367): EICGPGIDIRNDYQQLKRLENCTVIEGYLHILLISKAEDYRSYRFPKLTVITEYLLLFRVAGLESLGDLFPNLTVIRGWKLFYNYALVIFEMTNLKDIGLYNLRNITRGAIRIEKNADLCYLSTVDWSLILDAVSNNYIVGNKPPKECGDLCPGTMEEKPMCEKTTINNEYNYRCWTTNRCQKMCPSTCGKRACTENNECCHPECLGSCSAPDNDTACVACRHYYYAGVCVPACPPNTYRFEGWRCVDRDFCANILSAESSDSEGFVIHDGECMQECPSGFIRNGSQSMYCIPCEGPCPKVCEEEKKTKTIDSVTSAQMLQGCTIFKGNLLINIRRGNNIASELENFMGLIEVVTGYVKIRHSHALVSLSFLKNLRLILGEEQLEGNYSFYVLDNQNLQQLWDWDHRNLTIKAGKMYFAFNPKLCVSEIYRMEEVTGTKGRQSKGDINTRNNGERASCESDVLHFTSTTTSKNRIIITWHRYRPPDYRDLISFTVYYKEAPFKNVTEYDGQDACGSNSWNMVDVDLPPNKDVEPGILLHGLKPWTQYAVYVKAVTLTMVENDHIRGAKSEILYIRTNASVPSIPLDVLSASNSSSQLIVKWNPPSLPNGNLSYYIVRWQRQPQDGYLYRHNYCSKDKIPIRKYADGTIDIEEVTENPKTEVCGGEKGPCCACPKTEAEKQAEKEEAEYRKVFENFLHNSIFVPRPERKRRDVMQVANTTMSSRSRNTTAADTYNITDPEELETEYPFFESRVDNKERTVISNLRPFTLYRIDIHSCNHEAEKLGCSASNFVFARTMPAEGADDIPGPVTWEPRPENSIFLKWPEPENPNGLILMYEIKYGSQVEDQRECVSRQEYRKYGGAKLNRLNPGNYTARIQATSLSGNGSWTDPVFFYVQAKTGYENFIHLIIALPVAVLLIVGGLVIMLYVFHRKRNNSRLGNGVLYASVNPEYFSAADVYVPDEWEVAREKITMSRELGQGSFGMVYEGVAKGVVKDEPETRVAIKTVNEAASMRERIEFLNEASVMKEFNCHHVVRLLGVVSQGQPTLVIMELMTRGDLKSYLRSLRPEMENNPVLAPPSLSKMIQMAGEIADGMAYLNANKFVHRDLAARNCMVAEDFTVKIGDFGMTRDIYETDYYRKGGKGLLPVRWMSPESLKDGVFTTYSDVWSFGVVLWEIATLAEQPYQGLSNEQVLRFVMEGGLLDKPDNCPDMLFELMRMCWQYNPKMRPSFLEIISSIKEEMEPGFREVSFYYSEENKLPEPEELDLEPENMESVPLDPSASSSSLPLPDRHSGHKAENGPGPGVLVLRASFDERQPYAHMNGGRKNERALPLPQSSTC
T2 sequence (P08069 with tags, fused parts or gaps M1123C/Y1125N): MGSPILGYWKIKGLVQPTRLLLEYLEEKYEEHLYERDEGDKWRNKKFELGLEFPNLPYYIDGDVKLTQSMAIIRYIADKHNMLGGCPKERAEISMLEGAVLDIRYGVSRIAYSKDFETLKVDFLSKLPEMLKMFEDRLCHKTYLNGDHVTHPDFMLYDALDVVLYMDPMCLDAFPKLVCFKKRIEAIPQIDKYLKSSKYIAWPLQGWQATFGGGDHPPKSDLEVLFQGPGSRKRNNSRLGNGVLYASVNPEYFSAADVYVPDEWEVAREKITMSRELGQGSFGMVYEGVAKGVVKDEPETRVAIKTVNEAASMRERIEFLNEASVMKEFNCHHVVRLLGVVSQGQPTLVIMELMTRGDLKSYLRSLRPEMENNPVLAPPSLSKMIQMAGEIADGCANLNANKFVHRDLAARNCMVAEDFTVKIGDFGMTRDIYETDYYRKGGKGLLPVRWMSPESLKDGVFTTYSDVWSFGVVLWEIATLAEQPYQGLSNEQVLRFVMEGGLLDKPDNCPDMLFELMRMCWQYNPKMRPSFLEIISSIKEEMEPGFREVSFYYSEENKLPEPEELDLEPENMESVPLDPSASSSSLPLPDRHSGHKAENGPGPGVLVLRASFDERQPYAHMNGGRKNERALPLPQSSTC

Regarding `CN1CCN(c2ccc(C(=O)Nc3n[nH]c4c3CN(S(=O)(=O)c3cc(F)cc(F)c3)C4(C)C)cc2)CC1` [Example 43, N-[5-(3,5-difluoro-benzenesulfonyl)-6,6-dimethyl-1,4,5,6-tetrahydro-pyrrolo[3,4-c]pyrazol-3-yl]-4-(4-methyl-piperazin-1-yl)-benzamide], the “inhibition of IGF1R auto-phosphorylation” value against IGF1R is “inhibition of IGF1-induced IGF1R auto-phosphorylation”. The same measure, in the same setting: as for `CN1CCN(c2ccc(C(=O)Nc3n[nH]c4c3CN(S(=O)(=O)c3cc(F)cc(F)c3)C4(C)C)c(F)c2)CC1` [Example 49, N-[5-(3,5-Difluoro-benzenesulfonyl)-6,6-dimethyl-1,4,5,6-tetrahydro-pyrrolo[3,4-c]pyrazol-3-yl]-2-fluoro-4-(4-methyl-piperazin-1-yl)-benzamide], the entry is “inhibition of IGF1-induced IGF1R auto-phosphorylation”. For `CCOC(=O)n1nc(NC(=O)c2ccc(N3CCN(C)CC3)c(N(C)CCOC)c2)c2c1CNC2` [Example 24, 3-[3-[(2-Methoxy-ethyl)-methyl-amino]-4-(4-methyl-piperazin-1-yl)-benzoylamino]-5,6-dihydro-4H-pyrrolo[3,4-c]pyrazole-1-carboxylic acid ethyl ester hydrochloride], the 50% inhibitory concentration (IC50) at IGF-1R is 0.34 µM; in experiment [1] it was 3050 nM.
